Columns and labels:
[1] = tested on: cells transfected with the R183Q mutation; assay: Cell death / appearance of drug treated R183Q transfected cell cultures; assay type: cell-based, human; conditions: 100 nM digoxin
[2] = tested on: RGS4; conditions: cited from earlier work
[3] = tested on: phosphorylated-ERK; assay: Western analysis of phosphorylated-ERK in 293T cells transfected with GNAQ p.R183Q, normalized to tubulin; assay type: cell-based, human; conditions: 100 nM digoxin, 42 hours, p=0.0003
Procedure: 293T cells will be transiently transfected with wildtype, GNAQ, the p.Arg183Gln, or the p.Gln209Leu mutant constructs. Fugene6 (Promega) is used for the 293T transfections (3:1 ratio Fugene6:DNA). The cells are transfected at 60-75% confluency for about an hour.
Levels of phosphorylated-ERK (rabbit monoclonal Phospho-p44/42 MAPK (Erk1/2) Cell Signaling Technology) and phosphorylated-JNK are measured by western analysis and normalized to tubulin. RGS2 and/or RGS4 levels are measured by western analysis and normalized to tubulin. Protein samples are collected from three replicates per cell type and condition. Additionally, similar experiments are performed with the p.Gln209Leu GNAQ mutants as well.

[4] = tested on: RGS2; conditions: cited from earlier work

| SMILES | cell death in drug treated cell cultures ([1]; 18 hours) | cell death / growth in drug treated cells ([1]; 42 hours) | RGS4 protein levels [2] | p-ERK increase (drug vs vehicle) [3] | RGS2 protein levels [4] |
| --- | --- | --- | --- | --- | --- |
| C[C@H]1O[C@@H](O[C@H]2[C@@H](O)C[C@H](O[C@H]3[C@@H](O)C[C@H](O[C@H]4CC[C@@]5(C)[C@H](CC[C@@H]6[C@@H]5C[C@@H](O)[C@]5(C)[C@@H](C7=CC(=O)OC7)CC[C@]65O)C4)O[C@@H]3C)O[C@@H]2C)C[C@H](O)[C@@H]1O [digoxin] | increased cell death | increased cell death/less growth | not | about 3.9 fold | increase |
| C[C@@H]1O[C@@H](O[C@H]2C[C@@H](O)[C@]3(CO)[C@H]4[C@H](O)C[C@]5(C)[C@@H](C6=CC(=O)OC6)CC[C@]5(O)[C@@H]4CC[C@]3(O)C2)[C@H](O)[C@H](O)[C@H]1O [ouabain] | – | – | not | – | increase |
